Assay results as given in patent publication US11566022B2, “3-(5-methoxy-1-oxoisoindolin-2-yl)piperidine-2,6-dione derivatives and uses thereof” (NOVARTIS AG, priority 2019, dated 2023).
Read-outs that look alike come from different tables or passages of the source.

Biological target: HiBit-WIZ fusion protein (Homo sapiens, UniProt O95785+Q96SW2)
Test: Quantification of WIZ protein levels in HiBit tag fusion protein assay (WIZ HiBit assay in 293T cells)
Type: cell-based
Set-up: Dmax: dose or concentration left out as unconfirmed
Conditions: for remaining activity at up to 25 µM / WIZ Amax: DMSO-normalized, curve-fitted percentage of WIZ-HiBit remaining at 25 uM; for remaining activity at up to 25 µM: read-out: WIZ Amax; for DC50: WIZ HiBit assay in 293T cells, 10-point, 5-fold dose response, highest concentration 25 μM, about 18 hours, read-out: WIZ AC50; for % degradation of WIZ (100-Amax): at 25 uM
[1] = HEK-293T, 100 minus Amax, 293T cells, read-out: % degradation of WIZ (100-Amax)

Chain of HiBit-WIZ fusion protein (O95785 whole entry, the tested form may be a part): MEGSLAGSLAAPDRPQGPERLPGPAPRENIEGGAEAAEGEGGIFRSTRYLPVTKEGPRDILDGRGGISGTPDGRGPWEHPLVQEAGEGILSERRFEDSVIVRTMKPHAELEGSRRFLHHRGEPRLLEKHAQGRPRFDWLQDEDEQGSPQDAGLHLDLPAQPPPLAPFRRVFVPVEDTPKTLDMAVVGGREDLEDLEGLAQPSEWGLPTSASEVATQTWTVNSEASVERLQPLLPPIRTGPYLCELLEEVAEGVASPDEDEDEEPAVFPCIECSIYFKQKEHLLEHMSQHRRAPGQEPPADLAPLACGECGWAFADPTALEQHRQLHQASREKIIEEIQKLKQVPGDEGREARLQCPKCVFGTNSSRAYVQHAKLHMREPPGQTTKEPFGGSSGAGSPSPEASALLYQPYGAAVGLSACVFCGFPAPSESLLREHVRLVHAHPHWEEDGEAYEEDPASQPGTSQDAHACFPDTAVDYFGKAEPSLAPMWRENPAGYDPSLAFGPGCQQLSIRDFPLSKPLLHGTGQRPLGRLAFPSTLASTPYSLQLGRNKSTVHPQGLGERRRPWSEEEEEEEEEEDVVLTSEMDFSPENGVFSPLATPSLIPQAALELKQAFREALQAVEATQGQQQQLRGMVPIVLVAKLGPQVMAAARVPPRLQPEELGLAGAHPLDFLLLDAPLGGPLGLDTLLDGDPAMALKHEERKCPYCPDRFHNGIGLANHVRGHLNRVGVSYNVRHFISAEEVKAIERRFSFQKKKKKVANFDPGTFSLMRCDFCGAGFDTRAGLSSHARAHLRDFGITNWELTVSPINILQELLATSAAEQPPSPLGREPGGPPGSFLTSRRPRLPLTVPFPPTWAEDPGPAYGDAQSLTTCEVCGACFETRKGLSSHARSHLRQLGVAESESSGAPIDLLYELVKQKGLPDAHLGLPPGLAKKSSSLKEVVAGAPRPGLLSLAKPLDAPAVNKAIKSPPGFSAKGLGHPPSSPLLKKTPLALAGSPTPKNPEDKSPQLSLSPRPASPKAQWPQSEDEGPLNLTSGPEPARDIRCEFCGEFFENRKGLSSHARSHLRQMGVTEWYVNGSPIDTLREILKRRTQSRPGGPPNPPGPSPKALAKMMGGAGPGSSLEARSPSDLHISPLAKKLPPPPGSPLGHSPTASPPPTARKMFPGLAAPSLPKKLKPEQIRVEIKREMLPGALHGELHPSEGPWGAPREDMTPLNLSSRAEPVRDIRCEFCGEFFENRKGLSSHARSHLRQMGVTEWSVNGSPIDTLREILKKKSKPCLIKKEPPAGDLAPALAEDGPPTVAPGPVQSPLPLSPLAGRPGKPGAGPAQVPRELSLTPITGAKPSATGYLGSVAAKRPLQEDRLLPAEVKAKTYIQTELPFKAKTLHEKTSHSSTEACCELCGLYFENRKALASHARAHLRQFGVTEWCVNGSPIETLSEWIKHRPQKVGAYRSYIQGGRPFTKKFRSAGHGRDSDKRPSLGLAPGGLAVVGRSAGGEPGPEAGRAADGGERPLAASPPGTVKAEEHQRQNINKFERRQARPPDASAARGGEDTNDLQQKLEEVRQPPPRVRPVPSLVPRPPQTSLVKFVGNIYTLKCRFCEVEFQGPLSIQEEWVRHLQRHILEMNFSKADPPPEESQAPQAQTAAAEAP
Chain of HiBit-WIZ fusion protein (Q96SW2 whole entry, the tested form may be a part): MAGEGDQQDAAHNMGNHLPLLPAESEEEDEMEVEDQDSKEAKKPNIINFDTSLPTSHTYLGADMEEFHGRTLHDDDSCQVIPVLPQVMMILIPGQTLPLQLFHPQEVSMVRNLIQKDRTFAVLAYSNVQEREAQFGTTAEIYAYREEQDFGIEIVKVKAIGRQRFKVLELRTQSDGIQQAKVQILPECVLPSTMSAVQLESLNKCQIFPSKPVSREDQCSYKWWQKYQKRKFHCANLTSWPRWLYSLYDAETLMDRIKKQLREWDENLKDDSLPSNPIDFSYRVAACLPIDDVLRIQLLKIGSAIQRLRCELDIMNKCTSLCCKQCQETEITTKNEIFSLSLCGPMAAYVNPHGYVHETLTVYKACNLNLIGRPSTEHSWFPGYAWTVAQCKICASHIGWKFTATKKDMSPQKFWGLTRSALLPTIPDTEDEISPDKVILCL
Chain of HiBit-WIZ fusion protein (Q16531 whole entry partner, the tested form may be a part): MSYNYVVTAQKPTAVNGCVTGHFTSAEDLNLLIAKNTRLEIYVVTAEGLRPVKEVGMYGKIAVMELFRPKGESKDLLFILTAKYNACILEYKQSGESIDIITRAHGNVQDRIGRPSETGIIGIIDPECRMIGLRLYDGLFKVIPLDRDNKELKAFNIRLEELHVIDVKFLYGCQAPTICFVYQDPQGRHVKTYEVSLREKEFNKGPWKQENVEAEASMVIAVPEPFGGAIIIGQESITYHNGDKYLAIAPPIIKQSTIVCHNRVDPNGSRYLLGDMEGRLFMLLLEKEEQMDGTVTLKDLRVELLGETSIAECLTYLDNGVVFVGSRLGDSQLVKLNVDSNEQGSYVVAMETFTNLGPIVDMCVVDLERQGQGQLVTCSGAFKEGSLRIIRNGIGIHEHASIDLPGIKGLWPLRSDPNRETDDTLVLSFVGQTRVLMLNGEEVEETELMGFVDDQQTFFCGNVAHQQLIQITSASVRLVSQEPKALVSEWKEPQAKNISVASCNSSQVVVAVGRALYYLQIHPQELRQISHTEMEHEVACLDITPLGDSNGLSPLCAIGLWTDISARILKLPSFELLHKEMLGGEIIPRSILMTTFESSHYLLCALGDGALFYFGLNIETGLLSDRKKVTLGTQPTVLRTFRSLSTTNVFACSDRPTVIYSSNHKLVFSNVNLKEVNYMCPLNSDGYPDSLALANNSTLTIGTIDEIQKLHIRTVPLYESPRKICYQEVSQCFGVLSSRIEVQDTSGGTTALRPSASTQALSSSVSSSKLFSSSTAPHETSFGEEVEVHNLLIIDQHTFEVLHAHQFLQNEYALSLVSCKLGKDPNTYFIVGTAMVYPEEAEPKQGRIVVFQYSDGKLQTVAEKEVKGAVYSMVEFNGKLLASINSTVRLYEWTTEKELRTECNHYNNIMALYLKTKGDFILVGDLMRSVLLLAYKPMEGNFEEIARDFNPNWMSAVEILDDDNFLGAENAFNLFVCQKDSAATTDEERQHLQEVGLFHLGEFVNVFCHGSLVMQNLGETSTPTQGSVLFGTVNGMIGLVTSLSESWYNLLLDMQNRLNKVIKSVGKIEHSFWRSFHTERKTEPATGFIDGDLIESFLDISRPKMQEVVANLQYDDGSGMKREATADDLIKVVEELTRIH

Row | Compound | Dmax [1] | remaining activity at up to 25 µM (HEK-293T, 293T cells) | DC50 | % degradation of WIZ (100-Amax) (100 minus Amax, 293T cells) | WIZ Amax (293T cells) | Dmax (HEK-293T, read-out: % degradation of WIZ (100-Amax), 100 minus Amax, 293T cells) | remaining activity (HEK-293T, read-out: WIZ Amax, DMSO-normalized, curve-fitted percentage of WIZ-HiBit remaining at 25 uM, 293T cells)
1 | CN(C)CC(=O)N1CCCC[C@H]1COc1ccc2c(c1)CN(C1CCC(=O)NC1=O)C2=O (stereo partly drawn) [Compound I-72jk] | 7.2% | 92.8% | > 25 µM |  |  |  | 
2 | CCc1ocnc1C(=O)N1CCCC[C@H]1COc1ccc2c(c1)CN(C1CCC(=O)NC1=O)C2=O (stereo partly drawn) [Compound I-72ah] | 22.9% | 77.1% | > 25 µM |  |  |  | 
3 | O=C1CCC(N2Cc3cc(OC[C@@H]4CCCCN4C(=O)c4cc(-c5ccc(Br)cc5)on4)ccc3C2=O)C(=O)N1 (stereo partly drawn) [Compound I-72ak] | 78.9% | 21.1% | 0.686 µM |  |  |  | 
4 | CCc1nc(C)c(CN2CCCC[C@H]2COc2ccc3c(c2)CN(C2CCC(=O)NC2=O)C3=O)[nH]1 (stereo partly drawn) [Compound I-50cy] | 89% | 11% | 0.922 µM |  |  |  | 
5 | CC(Oc1ccccc1Cl)C(=O)N1CCCC[C@H]1COc1ccc2c(c1)CN(C1CCC(=O)NC1=O)C2=O (stereo partly drawn) [Compound I-72ag] | 5.4% | 94.6% | > 25 µM |  |  |  | 
6 | Cc1cc(-c2onc(C)c2C(=O)N2CCCC[C@H]2COc2ccc3c(c2)CN(C2CCC(=O)NC2=O)C3=O)no1 (stereo partly drawn) [Compound I-72ep] | 77.8% | 22.2% | 1.35 µM |  |  |  | 
7 | O=C1CCC(N2Cc3cc(OC[C@@H]4CCCCN4C(=O)C=C4CCCCC4)ccc3C2=O)C(=O)N1 (stereo partly drawn) [Compound I-72dm] | 11.5% | 88.5% | > 25 µM |  |  |  | 
8 | CCc1cncc(C(=O)N2CCCC[C@H]2COc2ccc3c(c2)CN(C2CCC(=O)NC2=O)C3=O)c1 (stereo partly drawn) [Compound I-72ay] | 17.6% | 82.4% | > 25 µM |  |  |  | 
9 | Cc1cccc(-c2n[nH]cc2CN2CCCC[C@@H]2COc2ccc3c(c2)CN(C2CCC(=O)NC2=O)C3=O)c1 (stereo partly drawn) [Compound I-50dj] | 99.7% | 0.3% | 2.45 µM |  |  |  | 
10 | O=C1CCC(N2Cc3cc(OC[C@@H]4CCCCN4Cc4ccnc(O)c4)ccc3C2=O)C(=O)N1 (stereo partly drawn) [Compound I-50cv] | 42.6% | 57.4% | > 25 µM |  |  |  | 
11 | O=C1CCC(N2Cc3cc(OC[C@H]4CCCCN4CC4CCN(Cc5ccccc5)CC4)ccc3C2=O)C(=O)N1 (stereo partly drawn) [Compound I-50bg] | 98% | 2% | 0.031 µM |  |  |  | 
12 | CCc1cc(CN2CCCC[C@@H]2COc2ccc3c(c2)CN(C2CCC(=O)NC2=O)C3=O)ccc1C1CCN(CC)CC1 (stereo partly drawn) [Compound I-157, 3-(5-(((R)-1-(3-ethyl-4-(1-ethylpiperidin-4-yl)benzyl)piperidin-2-yl)methoxy)-1-oxoisoindolin-2-yl)piperidine-2,6-dione] |  |  | 0.16 µM |  |  | 63% | 37%
13 | Cc1nnc(-c2ccc(C(=O)N3CCCC[C@H]3COc3ccc4c(c3)CN(C3CCC(=O)NC3=O)C4=O)cc2)o1 (stereo partly drawn) [Compound I-72gy] | 44.1% | 55.9% | > 25 µM |  |  |  | 
14 | COc1cc2[nH]nc(CN3CCCC[C@@H]3COc3ccc4c(c3)CN(C3CCC(=O)NC3=O)C4=O)c2cc1OCc1ccccc1 (stereo partly drawn) [Compound I-50ev] | 98% | 2% | 0.051 µM |  |  |  | 
15 | COc1c(F)cc(C(=O)N2CCCC[C@H]2COc2ccc3c(c2)CN(C2CCC(=O)NC2=O)C3=O)cc1F (stereo partly drawn) [Compound I-72eg] | 72.1% | 27.9% | 2.25 µM |  |  |  | 
16 | O=C1CCC(N2Cc3cc(OC[C@@H]4CCCCN4Cc4cccc(N5CCCC5)c4)ccc3C2=O)C(=O)N1 (stereo partly drawn) [Compound I-50aa] | 95.1% | 4.9% | 0.412 µM |  |  |  | 
17 | CC(C)Cn1cc(CN2CCCC[C@@H]2COc2ccc3c(c2)CN(C2CCC(=O)NC2=O)C3=O)cn1 (stereo partly drawn) [Compound I-50dw] | 99% | 1% | 0.008 µM |  |  |  | 
18 | CCN(CC)CC(=O)N1CCCC[C@H]1COc1ccc2c(c1)CN(C1CCC(=O)NC1=O)C2=O (stereo partly drawn) [Compound I-72cp] | 12.1% | 87.9% | > 25 µM |  |  |  | 
19 | O=C1CCC(N2Cc3cc(OC[C@H]4CCCCN4Cc4ccc[nH]c4=O)ccc3C2=O)C(=O)N1 (stereo partly drawn) [Compound I-50dp] | 65.5% | 34.5% | 6.84 µM |  |  |  | 
20 | O=C1CCC(N2Cc3cc(OC[C@@H]4CCCCN4Cc4cccc(N5CCOCC5)n4)ccc3C2=O)C(=O)N1 (stereo partly drawn) [Compound I-50bo] | 57.4% | 42.6% | 20.8 µM |  |  |  | 
21 | O=C1CCC(N2Cc3cc(OC[C@@H]4CCCCN4C(=O)c4cccc(OC(F)F)c4)ccc3C2=O)C(=O)N1 (stereo partly drawn) [Compound I-72hx] | 5.1% | 94.9% | > 25 µM |  |  |  | 
22 | Cc1nc(C(=O)N2CCCC[C@H]2COc2ccc3c(c2)CN(C2CCC(=O)NC2=O)C3=O)c(C)s1 (stereo partly drawn) [Compound I-72fp] | 9.5% | 90.5% | > 25 µM |  |  |  | 
23 | O=C1CCC(N2Cc3cc(OC[C@@H]4CCCCN4C(=O)c4ccc5nccnc5c4)ccc3C2=O)C(=O)N1 (stereo partly drawn) [Compound I-72hq] | 13.3% | 86.7% | > 25 µM |  |  |  | 

Second part, led by results:

Row | Dmax [1] | remaining activity at up to 25 µM (HEK-293T, 293T cells) | DC50 | % degradation of WIZ (100-Amax) (100 minus Amax, 293T cells) | WIZ Amax (293T cells) | Compound | Dmax (HEK-293T, read-out: % degradation of WIZ (100-Amax), 100 minus Amax, 293T cells) | remaining activity (HEK-293T, read-out: WIZ Amax, DMSO-normalized, curve-fitted percentage of WIZ-HiBit remaining at 25 uM, 293T cells)
24 | 82.2% | 17.8% | 0.41 µM |  |  | O=C1CCC(N2Cc3cc(OC[C@H]4CCCCN4CC45CC(F)(C4)C5)ccc3C2=O)C(=O)N1 (stereo partly drawn) [Compound I-100, 3-(5-(((R)-1-((3-fluorobicyclo[1.1.1]pentan-1-yl)methyl)piperidin-2-yl)methoxy)-1-oxoisoindolin-2-yl)piperidine-2,6-dione] |  | 
25 | 25.9% | 74.1% | > 25 µM |  |  | O=C1CCC(N2Cc3cc(OC[C@@H]4CCCCN4Cc4ncc[nH]4)ccc3C2=O)C(=O)N1 (stereo partly drawn) [Compound I-50w] |  | 
26 | 92.7% | 7.28% | 0.00047 µM |  |  | O=C1CCC(N2Cc3cc(OC[C@H]4CCCCN4Cc4ccc5c(c4)OC(F)(F)O5)ccc3C2=O)C(=O)N1 (stereo partly drawn) [Compound I-184] |  | 
27 |  |  | > 25 µM | 15.6% | 84.4% | CCN1CCC[C@H]1C(C)Oc1ccc2c(c1)CN(C1CCC(=O)NC1=O)C2=O (single isomer, unassigned) [Compound I-27] |  | 
28 | 73.2% | 26.8% | 0.0043 µM |  |  | CC(C)(C)OC(=O)N1CCN(c2ccc(CN3CCCC[C@@H]3COc3ccc4c(c3)CN(C3CCC(=O)NC3=O)C4=O)cn2)CC1 (stereo partly drawn) [Compound I-189, Tert-butyl 4-(5-(((2R)-2-(((2-(2,6-dioxopiperidin-3-yl)-1-oxoisoindolin-5-yl)oxy)methyl)piperidin-1-yl)methyl)pyridin-2-yl)piperazine-1-carboxylate] |  | 
29 | 98.6% | 1.39% | 0.017 µM |  |  | O=C1CCC(N2Cc3cc(OC[C@H]4CCCCN4Cc4cnc5ccccc5c4)ccc3C2=O)C(=O)N1 (stereo partly drawn) [Compound I-150] |  | 
30 |  |  | > 25 µM | 21.3% | 78.7% | CCC(Oc1ccc2c(c1)CN(C1CCC(=O)NC1=O)C2=O)[C@@H]1CCCN1 (single isomer, unassigned) [Compound I-45] |  | 
31 | 82.7% | 17.3% | 0.24 µM |  |  | O=C1CCC(N2Cc3cc(OC[C@H]4CCCCN4Cc4ccc(N5CCN(CC6CC6)CC5)cc4)ccc3C2=O)C(=O)N1 (stereo partly drawn) [Compound I-102, 3-(5-(((R)-1-(4-(4-(cyclopropylmethyl)piperazin-1-yl)benzyl)piperidin-2-yl)methoxy)-1-oxoisoindolin-2-yl)piperidine-2,6-dione] |  | 
32 | 79.2% | 20.8% | 3.2 µM |  |  | CN(C)Cc1ncc(-c2ccc(Oc3cc(Cl)cnc3CN3CCCC[C@H]3COc3ccc4c(c3)CN(C3CCC(=O)NC3=O)C4=O)cc2)n1C (stereo partly drawn) [Compound I-50z] |  | 
33 | 83% | 17% | 1.48 µM |  |  | O=C1CCC(N2Cc3cc(OC[C@@H]4CCCCN4Cc4ccc(O)c(Cl)c4)ccc3C2=O)C(=O)N1 (stereo partly drawn) [Compound I-50b] |  | 
34 | 58.4% | 41.6% | 12.5 µM |  |  | O=C1CCC(N2Cc3cc(OC[C@@H]4CCCCN4Cc4ccc(N5CCCC5=O)cc4)ccc3C2=O)C(=O)N1 (stereo partly drawn) [Compound I-50o] |  | 
35 | 15.3% | 84.7% | 0.02 µM |  |  | O=C1CCC(N2Cc3cc(OC[C@H]4CCCCN4Cc4cccc5c4NC(=O)CO5)ccc3C2=O)C(=O)N1 (stereo partly drawn) [Compound I-180, 3-(1-oxo-5-(((R)-1-((3-oxo-3,4-dihydro-2H-benzo[b][1,4]oxazin-5-yl)methyl)piperidin-2-yl)methoxy)isoindolin-2-yl)piperidine-2,6-dione] |  | 
36 | 94.5% | 5.51% | 0.02 µM |  |  | O=C1CCC(N2Cc3cc(OC[C@H]4CCCCN4Cc4ccc(O)cc4)ccc3C2=O)C(=O)N1 (stereo partly drawn) [Compound I-148] |  | 
37 | 94.4% | 5.61% | 0.04 µM |  |  | CCN1CCC(c2ccccc2CN2CCCC[C@@H]2COc2ccc3c(c2)CN(C2CCC(=O)NC2=O)C3=O)CC1 (stereo partly drawn) [Compound I-124, 3-(5-(((R)-1-(2-(1-ethylpiperidin-4-yl)benzyl)piperidin-2-yl)methoxy)-1-oxoisoindolin-2-yl)piperidine-2,6-dione] |  | 
38 | 88.9% | 11.1% | 0.097 µM |  |  | COC(=O)c1ccc(Oc2ccc(CN3CCCC[C@H]3COc3ccc4c(c3)CN(C3CCC(=O)NC3=O)C4=O)cc2)cc1 (stereo partly drawn) [Compound I-50g] |  | 
39 | 82.6% | 17.4% | 0.816 µM |  |  | O=C1CCC(N2Cc3cc(OC[C@@H]4CCCCN4Cc4cccn4S(=O)(=O)c4ccccc4)ccc3C2=O)C(=O)N1 (stereo partly drawn) [Compound I-50f] |  | 
